Laboratory results as given in the supplement of paper PMC6045584.
± gives the standard deviation of the averaged measurements.

What was measured:
[1] = compound: CCCCCCCCCCCCCCCC(=O)Nc1ccn([C@@H]2O[C@H](CO)[C@@H](O)[C@@H]2C#N)c(=O)n1 [SAPACITABINE]; test: surviving fraction relative to DMSO-only wells; higher = less growth inhibition; settings: exposure time: 5 days
Summary of the method: (§1)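 For each tumour cell line, log-phase cells were put into 384-well plates at 250–500 cells per well, then after 24 hours exposed continuously for five days to inhibitors at 0.5, 1, 5, 10, 50, 100, 500 and 1000 nM. Viability was assessed by CellTiter-Glo luminescence, with surviving fraction expressed relative to the median of DMSO-only wells. Lines were screened three times and retained only if replicate Pearson r exceeded 0.7 and median Z' exceeded 0.3.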

[2] = compound: CC[C@@H]1C(=O)N(C)c2cnc(Nc3ccc(C(=O)NC4CCN(C)CC4)cc3OC)nc2N1C1CCCC1 [BI-2536]; test: as above; settings: exposure time: 5 days
Summary of the method: as §1

| Test System | surviving fraction ([1]; 0.5 nM) | surviving fraction ([1]; 1 nM) | surviving fraction ([1]; 5 nM) | surviving fraction ([1]; 10 nM) | surviving fraction ([1]; 50 nM) | surviving fraction ([1]; 100 nM) | surviving fraction ([1]; 500 nM) | surviving fraction ([1]; 1000 nM) | surviving fraction ([2]; 0.5 nM) | surviving fraction ([2]; 1 nM) | surviving fraction ([2]; 5 nM) | surviving fraction ([2]; 10 nM) | surviving fraction ([2]; 50 nM) | surviving fraction ([2]; 100 nM) | surviving fraction ([2]; 500 nM) | surviving fraction ([2]; 1000 nM) |
| --- | --- | --- | --- | --- | --- | --- | --- | --- | --- | --- | --- | --- | --- | --- | --- | --- |
| MDAMB361 BREAST | 0.711 ± 0.096 | 0.624 ± 0.029 | 0.662 ± 0.06 | 0.648 ± 0.069 | 0.868 ± 0.097 | 0.771 ± 0.1 | 0.908 ± 0.093 | 0.872 ± 0.041 | 0.674 ± 0.046 | 0.617 ± 0.026 | 0.578 ± 0.051 | 0.637 ± 0.0066 | 0.565 ± 0.026 | 0.517 ± 0.013 | 0.245 ± 0.0072 | 0.21 ± 0.028 |
| SG32 HEADNECK | 0.715 ± 0.068 | 0.614 ± 0.17 | 0.907 ± 0.12 | 0.429 ± 0.12 | 0.707 ± 0.11 | 0.487 ± 0.065 | 0.447 ± 0.082 | 0.289 ± 0.078 | 1.22 ± 0.12 | 1.07 ± 0.18 | 0.32 ± 0.017 | 0.296 ± 0.022 | 0.292 ± 0.0097 | 0.294 ± 0.043 | 0.204 ± 0.014 | 0.16 ± 0.02 |
| SKBR3 BREAST | 0.873 ± 0.076 | 0.696 ± 0.054 | 0.756 ± 0.012 | 0.828 ± 0.046 | 0.791 ± 0.15 | 0.572 ± 0.096 | 0.386 ± 0.084 | 0.391 ± 0.051 | 0.914 ± 0.12 | 0.363 ± 0.043 | 0.158 ± 0.026 | 0.189 ± 0.02 | 0.255 ± 0.063 | 0.356 ± 0.045 | 0.321 ± 0.018 | 0.301 ± 0.025 |
| HT1080 SOFT TISSUE | 1 ± 0.028 | 1.01 ± 0.029 | 1.02 ± 0.053 | 0.935 ± 0.053 | 0.591 ± 0.025 | 0.434 ± 0.012 | 0.314 ± 0.012 | 0.271 ± 0.0047 | 1.05 ± 0.027 | 1.067 ± 0.01 | 0.9357 ± 0.0021 | 0.087 ± 0.0056 | 0.0513 ± 0.0051 | 0.051 ± 0.0035 | 0.077 ± 0.0046 | 0.0823 ± 0.0095 |
| SG27 HEADNECK | 1.05 ± 0.027 | 1.01 ± 0.041 | 1 ± 0.16 | 0.731 ± 0.054 | 0.97 ± 0.021 | 0.975 ± 0.075 | 0.999 ± 0.025 | 0.885 ± 0.022 | 0.99 ± 0.077 | 1.16 ± 0.1 | 1.04 ± 0.06 | 1.03 ± 0.098 | 1 ± 0.076 | 1 ± 0.1 | 0.391 ± 0.11 | 0.212 ± 0.068 |
| 143B BONE | 1.03 ± 0.067 | 1.05 ± 0.029 | 1.08 ± 0.069 | 1.06 ± 0.03 | 1.08 ± 0.047 | 1.12 ± 0.098 | 1.05 ± 0.079 | 0.942 ± 0.05 | 1.01 ± 0.023 | 0.954 ± 0.0071 | 0.117 ± 0.013 | 0.0745 ± 0.005 | 0.082 ± 0.0042 | 0.114 ± 0.013 | 0.254 ± 0.0014 | 0.235 ± 0.025 |
| CME SYNOVIAL | 0.788 ± 0.087 | 0.415 ± 0.05 | 0.703 ± 0.091 | 0.027 ± 0.011 | 0.922 ± 0.077 | 0.379 ± 0.075 | 0.248 ± 0.016 | 0.034 ± 0.0076 | 1.02 ± 0.077 | 0.988 ± 0.11 | 0.683 ± 0.18 | 0.378 ± 0.031 | 0.278 ± 0.023 | 0.237 ± 0.01 | 0.259 ± 0.004 | 0.279 ± 0.011 |
| T47D BREAST | 0.9004 ± 0.0044 | 0.871 ± 0.029 | 0.911 ± 0.078 | 0.825 ± 0.035 | 0.961 ± 0.06 | 0.918 ± 0.036 | 0.649 ± 0.0094 | 0.519 ± 0.039 | 0.981 ± 0.018 | 0.871 ± 0.016 | 0.551 ± 0.017 | 0.488 ± 0.01 | 0.374 ± 0.019 | 0.53 ± 0.035 | 0.2606 ± 0.0011 | 0.276 ± 0.011 |
| SUM149 BREAST | 0.829 ± 0.11 | 0.666 ± 0.055 | 0.69 ± 0.11 | 0.188 ± 0.006 | 0.339 ± 0.031 | 0.22 ± 0.018 | 0.236 ± 0.016 | 0.186 ± 0.021 | 1.05 ± 0.054 | 0.906 ± 0.091 | 0.122 ± 0.012 | 0.0487 ± 0.0035 | 0.0743 ± 0.0057 | 0.0903 ± 0.014 | 0.084 ± 0.01 | 0.0603 ± 0.0065 |
| HELA CERVIX | 0.847 ± 0.031 | 0.843 ± 0.033 | 0.837 ± 0.027 | 0.819 ± 0.018 | 0.954 ± 0.064 | 1.02 ± 0.013 | 0.826 ± 0.066 | 0.794 ± 0.035 | 1.05 ± 0.05 | 1.048 ± 0.0063 | 0.243 ± 0.048 | 0.033 ± 0.00087 | 0.0492 ± 0.0016 | 0.0475 ± 0.0049 | 0.11 ± 0.0041 | 0.133 ± 0.013 |
| MHM BONE | 0.975 ± 0.036 | 0.97 ± 0.058 | 0.978 ± 0.034 | 0.996 ± 0.028 | 0.951 ± 0.027 | 0.789 ± 0.043 | 0.305 ± 0.012 | 0.262 ± 0.03 | 1.02 ± 0.021 | 0.993 ± 0.017 | 1.03 ± 0.023 | 0.831 ± 0.058 | 0.404 ± 0.013 | 0.327 ± 0.026 | 0.248 ± 0.0076 | 0.258 ± 0.015 |
| BT549 BREAST | 0.831 ± 0.065 | 0.869 ± 0.068 | 0.809 ± 0.027 | 0.695 ± 0.026 | 0.508 ± 0.022 | 0.367 ± 0.029 | 0.16 ± 0.044 | 0.125 ± 0.034 | 0.905 ± 0.14 | 0.923 ± 0.052 | 0.229 ± 0.021 | 0.132 ± 0.038 | 0.0863 ± 0.0081 | 0.0867 ± 0.011 | 0.0667 ± 0.011 | 0.0373 ± 0.0093 |
| U2OS BONE | 0.921 ± 0.066 | 0.938 ± 0.06 | 0.946 ± 0.035 | 0.936 ± 0.067 | 0.939 ± 0.016 | 0.83 ± 0.036 | 0.729 ± 0.019 | 0.66 ± 0.032 | 1.04 ± 0.027 | 1.05 ± 0.063 | 0.902 ± 0.023 | 0.302 ± 0.023 | 0.215 ± 0.0062 | 0.199 ± 0.01 | 0.188 ± 0.0087 | 0.171 ± 0.013 |
| COLO320DM LARGE INTESTINE | 1.01 ± 0.054 | 0.88 ± 0.044 | 1.08 ± 0.043 | 0.386 ± 0.015 | 0.887 ± 0.057 | 0.689 ± 0.0072 | 0.597 ± 0.024 | 0.185 ± 0.0083 | 1.17 ± 0.018 | 1.08 ± 0.015 | 1.09 ± 0.051 | 0.836 ± 0.034 | 0.191 ± 0.019 | 0.0987 ± 0.0025 | 0.105 ± 0.011 | 0.109 ± 0.0025 |
